Test results as given in PubChem BioAssay (NCI).
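96-well plates; 48 h exposure; 5 concentrations. Endpoints by linear interpolation between flanking doses. Not reached: highest tested concentration assigned. GI50 is the concentration that inhibits growth by half. TGI: total growth inhibition.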

Legend:
Test in all cases: inhibition of tumour cell growth, NCI panel, 48 h
[1] = tested on: SN12C renal
[2] = tested on: M14 melanoma
[3] = tested on: ACHN renal
[4] = tested on: SR leukemia
[5] = tested on: SK-MEL-5 melanoma
[6] = tested on: OVCAR-5 ovarian
[7] = tested on: HS 578T breast
[8] = tested on: OVCAR-4 ovarian
[9] = tested on: RXF 393 renal
[10] = tested on: EKVX NSCLC

| SMILES | GI50 [1] | TGI [1] | GI50 [2] | TGI [2] | GI50 [3] | TGI [3] | GI50 [4] | TGI [4] | GI50 [5] | TGI [5] | GI50 [6] | TGI [6] | GI50 [7] | TGI [7] | GI50 [8] | TGI [8] | GI50 [9] | TGI [9] | GI50 [10] | TGI [10] |
| --- | --- | --- | --- | --- | --- | --- | --- | --- | --- | --- | --- | --- | --- | --- | --- | --- | --- | --- | --- | --- |
| O=c1[nH]c2ccccc2n1C1CCNCC1 | > 100 µM | > 100 µM | > 100 µM | > 100 µM | > 100 µM | > 100 µM | > 100 µM | > 100 µM | > 100 µM | > 100 µM | > 100 µM | > 100 µM | > 100 µM | > 100 µM | > 100 µM | > 100 µM | > 100 µM | > 100 µM | > 100 µM | > 100 µM |
| Cc1ccc(N)c(S)c1 | – | 7.83 µM | – | 30.8 µM | – | 37.9 µM | – | 45.8 µM | – | 30.6 µM | – | 42 µM | – | > 100 µM | – | 43.5 µM | – | 30.8 µM | – | 31.5 µM |
| COc1cc2c(c3oc(-c4ccc(O)cc4)c(O)c(=O)c13)CCC(C)(C)O2 | 0.271 µM | 0.884 µM | 0.212 µM | 0.523 µM | 0.145 µM | – | 0.0773 µM | – | 0.0908 µM | 0.241 µM | 0.229 µM | 0.622 µM | 0.0903 µM | – | 0.9 µM | 2.88 µM | 0.0379 µM | 0.176 µM | 0.308 µM | – |
| Cc1cc(I)cc(CNCCN(C)C)c1O | > 85.6 µM | > 100 µM | 33.9 µM | > 100 µM | > 79.6 µM | > 100 µM | – | 0.383 µM | 27.9 µM | > 80.8 µM | > 100 µM | > 100 µM | 49.5 µM | > 100 µM | > 93.1 µM | > 100 µM | 30.6 µM | > 100 µM | > 100 µM | > 100 µM |
| C=C(CO)C(=O)OC1CC(=C)C2CC(O)C(C)C2C2OC(=O)C(=C)C12 (stereo not given) | – | 32.7 µM | – | 33.4 µM | – | 34 µM | – | 51.2 µM | – | 50.9 µM | – | > 100 µM | – | 47.5 µM | – | > 100 µM | – | 36.4 µM | – | > 100 µM |
| COc1cc(/C=C/C(=O)c2cccc(-n3cc(-c4ccccc4)[nH]c3=O)c2)cc(OC)c1OC | 2.09 µM | 10.7 µM | 1.35 µM | 2.72 µM | 1.6 µM | 3.21 µM | 0.565 µM | > 100 µM | 1.4 µM | 2.69 µM | 1.88 µM | 3.74 µM | 3.41 µM | 27.1 µM | 1.88 µM | 5.07 µM | 1.71 µM | 3.53 µM | 2.3 µM | 11.4 µM |
| COc1ccc(C2=NN(C(N)=S)C(c3ccc4c(c3)OCO4)C2)cc1 (stereo not given) | 3.37 µM | > 100 µM | 3.77 µM | 35.4 µM | 3.58 µM | > 100 µM | 3.08 µM | 11.8 µM | 2.47 µM | 8.41 µM | 2.79 µM | 21.9 µM | 2.82 µM | 7.09 µM | 3.4 µM | > 100 µM | 4.28 µM | > 100 µM | 2.54 µM | 37.9 µM |
| CCC(=C(c1ccc(OCCN2CCCCC2)cc1)c1ccc(OCCN2CCCCC2)cc1)c1ccc(Cl)cc1 | > 16.7 µM | > 16.7 µM | 0.669 µM | 2.65 µM | 7.12 µM | > 16.7 µM | 0.425 µM | 1.27 µM | 2.83 µM | 5.3 µM | > 16.7 µM | > 16.7 µM | 4.23 µM | > 16.7 µM | > 16.7 µM | > 16.7 µM | 3.08 µM | 16.6 µM | > 16.7 µM | > 16.7 µM |
| CC(C)=CCc1cc2c(cc1O)C1=C(C(=O)C3=C(NCCS3(=O)=O)C1=O)C(C=C(C)C)O2 (stereo not given) | 2.78 µM | 5.69 µM | 5.85 µM | > 16.7 µM | 10.7 µM | > 16.7 µM | 5.46 µM | > 16.7 µM | 3.35 µM | 6.95 µM | > 16.7 µM | > 16.7 µM | 4.85 µM | > 16.7 µM | 3.31 µM | > 16.7 µM | 7.66 µM | > 16.7 µM | 6.24 µM | > 16.7 µM |
